What was measured:
[1] = test system: wildtype Wnt signaling cascade; experiment: HEK293 TOP assay (Super TopFlash luciferase reporter, Wnt-3a stimulated); type: cell-based; conditions: Homo sapiens, HEK293, 16 h, HEK293 TOP reporter cells, Wnt3a at EC50, 16 hours
Procedure, shortened: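 Compound series (50 μM down to 15 nM, 3.16-fold) diluted from DMSO 50-fold into CAFTY buffer, pH 7.4, 2 mM Ca^2+, 0.01% BSA, applied to Wnt-3a-stimulated HEK293 TopFlash and FOP reporter lines in parallel. Cells seeded 10000/well 24 h before; luciferase signal measured.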

[2] = biological target: T1, TNKS1 (Homo sapiens, UniProt O95271); experiment: TNKS1 Assay B (auto-parsylation, [3H]-NAD+ SPA); type: biochemical; conditions: 6 nM TNKS1, auto-parsylation, over night at room temperature
T1 construct: purchased BPS Bioscience, San Diego, USA 80579 (TNKS1 Histone Ribosylation Assay Kit)
T1 sequence (O95271 1-1327): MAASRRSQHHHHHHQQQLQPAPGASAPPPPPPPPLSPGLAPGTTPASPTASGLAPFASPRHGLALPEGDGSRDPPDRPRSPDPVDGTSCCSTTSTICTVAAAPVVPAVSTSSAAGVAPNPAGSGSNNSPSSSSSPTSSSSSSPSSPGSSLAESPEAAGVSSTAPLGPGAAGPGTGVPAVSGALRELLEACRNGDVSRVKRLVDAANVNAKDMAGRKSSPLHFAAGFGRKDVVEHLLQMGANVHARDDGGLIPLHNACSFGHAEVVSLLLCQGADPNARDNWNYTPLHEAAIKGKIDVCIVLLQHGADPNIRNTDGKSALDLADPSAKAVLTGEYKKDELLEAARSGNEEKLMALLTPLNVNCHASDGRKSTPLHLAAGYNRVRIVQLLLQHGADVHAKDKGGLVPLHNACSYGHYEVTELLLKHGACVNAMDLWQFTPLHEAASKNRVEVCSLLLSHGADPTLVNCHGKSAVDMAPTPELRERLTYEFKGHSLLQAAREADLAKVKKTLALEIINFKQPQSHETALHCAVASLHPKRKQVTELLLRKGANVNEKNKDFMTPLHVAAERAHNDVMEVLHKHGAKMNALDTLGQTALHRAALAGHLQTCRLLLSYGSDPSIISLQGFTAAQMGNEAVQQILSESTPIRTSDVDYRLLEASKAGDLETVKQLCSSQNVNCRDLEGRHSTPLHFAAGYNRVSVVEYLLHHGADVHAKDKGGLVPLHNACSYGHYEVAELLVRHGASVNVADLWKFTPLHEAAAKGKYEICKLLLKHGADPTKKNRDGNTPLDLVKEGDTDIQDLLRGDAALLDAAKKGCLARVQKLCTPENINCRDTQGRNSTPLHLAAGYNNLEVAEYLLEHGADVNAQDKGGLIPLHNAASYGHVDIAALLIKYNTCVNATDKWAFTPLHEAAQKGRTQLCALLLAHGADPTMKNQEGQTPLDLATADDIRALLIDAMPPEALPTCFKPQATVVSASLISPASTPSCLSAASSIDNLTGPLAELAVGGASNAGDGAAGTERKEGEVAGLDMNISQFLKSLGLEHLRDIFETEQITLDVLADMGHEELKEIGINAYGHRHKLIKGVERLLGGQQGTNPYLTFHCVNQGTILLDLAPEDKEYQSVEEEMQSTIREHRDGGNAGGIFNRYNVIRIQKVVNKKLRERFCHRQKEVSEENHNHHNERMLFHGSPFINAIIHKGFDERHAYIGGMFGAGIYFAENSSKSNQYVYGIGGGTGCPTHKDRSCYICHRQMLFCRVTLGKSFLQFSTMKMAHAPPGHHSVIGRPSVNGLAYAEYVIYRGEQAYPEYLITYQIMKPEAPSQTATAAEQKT

Row | IC50 [1] | IC50 [2] | SMILES
1 | 9.4 nM | 13 nM | CC(C)NC(=O)c1nc[nH]c1C(=O)N[C@H]1CC[C@@]2(CCN(c3ccc(F)cc3Cl)C2=O)CC1 [Example 162, N^5-[(trans)-2-(2-chloro-4-fluorophenyl)-1-oxo-2-azaspiro[4.5]dec-8-yl]-N^4-isopropyl-1H-imidazole-4,5-dicarboxamide]
2 | 2.4 nM | 13 nM | COCCNC(=O)c1nc[nH]c1C(=O)N[C@H]1CC[C@@]2(CCN(c3ccc(F)cc3Cl)C2=O)CC1 [Example 163, N^5-[(trans)-2-(2-chloro-4-fluorophenyl)-1-oxo-2-azaspiro[4.5]dec-8-yl]-N^4-(2-methoxyethyl)-1H-imidazole-4,5-dicarboxamide]
3 | 3.8 nM | 12 nM | O=C(NC1CC1)c1nc[nH]c1C(=O)N[C@H]1CC[C@@]2(CCN(c3ccc(F)cc3Cl)C2=O)CC1 [Example 165, N^5-[(trans)-2-(2-chloro-4-fluorophenyl)-1-oxo-2-azaspiro[4.5]dec-8-yl]-N^4-cyclopropyl-1H-imidazole-4,5-dicarboxamide]
4 | 0.69 nM | 7.4 nM | O=C(N[C@H]1CC[C@@]2(CCN(c3ccc(F)cc3Cl)C2=O)CC1)c1[nH]cnc1C(=O)N1CC(F)C1 [Example 166, N-[(trans)-2-(2-chloro-4-fluorophenyl)-1-oxo-2-azaspiro[4.5]dec-8-yl]-4-[(3-fluoroazetidin-1-yl)carbonyl]-1H-imidazole-5-carboxamide]
